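Exposure lasted 48 hours, with cells grown in 96-well plates and compounds tested at five concentrations. GI50: concentration for 50% inhibition of growth.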 Activity calls are given as the source filed them. Rule as the data show it: active = GI50 up to about 1.1 µM and inactive = higher.

Test systems include SW-620; COLO 205; SK-MEL-2; SNB-19; NCI-H226; CCRF-CEM; OVCAR-4; OVCAR-5; EKVX; SK-MEL-28; SN12C; SK-MEL-5; UACC-257; UO-31; MDA-MB-231; NCI/ADR-RES; T47D; MDA-N; PC-3.
What all share (test): NCI tumour cell line growth inhibition, 48 h

Regarding `COC1C(OC(=O)c2ccc(C)[nH]2)C(O)C(Oc2ccc3c(O)c(NC(=O)c4c[nH]c(C(=O)Nc5c(O)c6ccc(OC7OC(C)(C)C(OC)C(OC(=O)c8ccc(C)[nH]8)C7O)c(C)c6oc5=O)c4C)c(=O)oc3c2C)OC1(C)C` (centres undefined), the GI50 in the experiment with SW-620 was 4.34 µM (inactive); with COLO 205 it was 1.87 µM (inactive); in the experiment on SK-MEL-2, 2.28 µM (inactive); with SNB-19, 0.693 µM (active); in the experiment on NCI-H226, 1.96 µM (inactive); in the experiment with CCRF-CEM it was 2.34 µM (inactive). Besides, the GI50 in the experiment on OVCAR-4 is 2.05 µM (inactive); in the experiment with OVCAR-5, 2.84 µM (inactive); in the experiment on EKVX it was 3.82 µM (inactive); in the experiment with SK-MEL-28, 0.475 µM (active); with SN12C it was 1.54 µM (inactive); in the experiment with SK-MEL-5, 2.61 µM (inactive). Further, the GI50 was 3.95 µM (inactive) with UACC-257 and 1.45 µM (inactive) with UO-31.
In the case of `CN(C)P(=O)(/C(N)=N/Nc1ccc([N+](=O)[O-])cc1)N(C)C`, the GI50 in the experiment with SW-620, with COLO 205, in the experiment on SK-MEL-2, in the experiment on SNB-19, in the experiment with NCI-H226 and with CCRF-CEM was > 100 µM (inactive) throughout. Moreover, the GI50 was 85.1 µM (inactive) with OVCAR-4; > 100 µM (inactive) in the experiment on OVCAR-5; > 100 µM (inactive) in the experiment on EKVX; > 100 µM (inactive) in the experiment with SK-MEL-28; > 100 µM (inactive) with SN12C; > 100 µM (inactive) in the experiment on SK-MEL-5. For the same compound, the GI50 in the experiment with UACC-257 and with UO-31 was > 100 µM (inactive) each time.
On to `OCCC/N=C1N=C(Cl)/C(=C\c2ccccc2)N\1`, for which the GI50 in the experiment with SW-620, in the experiment on COLO 205, in the experiment on SNB-19, in the experiment with NCI-H226, in the experiment on MDA-MB-231 and with CCRF-CEM was > 100 µM (inactive) each time. Besides, the GI50 in the experiment on OVCAR-4, in the experiment on OVCAR-5, with EKVX, in the experiment on SK-MEL-28, in the experiment on SN12C and in the experiment with SK-MEL-5 was > 100 µM (inactive) each time. In addition, the GI50 in the experiment on NCI/ADR-RES, in the experiment on T47D, in the experiment with UACC-257, in the experiment with UO-31 and in the experiment on MDA-N was > 100 µM (inactive) in each case.
For the compound `CC12CCC([C@H](N3CCOCC3)/C1=N\OCCN1CCCC1)C2(C)C` (some centres undefined), the GI50 with SW-620, in the experiment with COLO 205, in the experiment on SK-MEL-2, in the experiment on SNB-19, in the experiment on NCI-H226 and in the experiment with CCRF-CEM was > 100 µM (inactive) in each case. Besides, the GI50 in the experiment on OVCAR-4, in the experiment on OVCAR-5, with EKVX, in the experiment with SK-MEL-28, in the experiment on SN12C and in the experiment on SK-MEL-5 was > 100 µM (inactive) each time. Further, the GI50 in the experiment with UACC-257 and in the experiment with UO-31 was > 100 µM (inactive) in each case.
For `C/C(=C\c1ccc(Cl)c(Cl)c1)[N+](=O)[O-]`, the GI50 with SW-620 was 0.986 µM (active); in the experiment on SK-MEL-2 it was 1.99 µM (inactive); with SNB-19, 2.39 µM (inactive); in the experiment with NCI-H226, 2.46 µM (inactive); in the experiment with MDA-MB-231, 2.1 µM (inactive); with OVCAR-4, 2.51 µM (inactive). The GI50 with OVCAR-5 is 1.96 µM (inactive); in the experiment on EKVX, 2.08 µM (inactive); with SK-MEL-28, 2.31 µM (inactive); in the experiment on SN12C it was 2.05 µM (inactive); in the experiment with SK-MEL-5 it was 2.04 µM (inactive); in the experiment with NCI/ADR-RES, 3.41 µM (inactive). For the same compound, the results for the GI50 with UACC-257 and with UO-31 were 1.3 µM (inactive) and 1.32 µM (inactive), respectively.
Regarding `CCOC(=O)c1sc2c(c1OC(=O)c1ccccc1)c(=O)n(-c1ccccc1)c(=S)n2-c1ccccc1`, the GI50 with PC-3 was 33.7 µM (inactive); in the experiment on SW-620, 44.6 µM (inactive); in the experiment on COLO 205, > 100 µM (inactive); with SNB-19, 40.3 µM (inactive); in the experiment on NCI-H226, > 100 µM (inactive); with MDA-MB-231, 28.5 µM (inactive). The GI50 is 41.8 µM (inactive) in the experiment on CCRF-CEM; 12.4 µM (inactive) with OVCAR-4; 68.7 µM (inactive) in the experiment on OVCAR-5; 63.8 µM (inactive) with EKVX; 32.2 µM (inactive) with SK-MEL-28; > 100 µM (inactive) in the experiment with SN12C. Also, the GI50 with SK-MEL-5 is 20.7 µM (inactive); in the experiment on NCI/ADR-RES it was 19.1 µM (inactive); in the experiment with T47D it was 63.7 µM (inactive); in the experiment on UACC-257, 87.3 µM (inactive).
Take `CC1=Nc2ccccc2S(=O)(=O)N1`: the GI50 in the experiment on SW-620, in the experiment with COLO 205, with SK-MEL-2, with SNB-19, with NCI-H226 and in the experiment with CCRF-CEM was > 100 µM (inactive) each time. Moreover, the GI50 with OVCAR-4, in the experiment with OVCAR-5, in the experiment on EKVX, in the experiment on SK-MEL-28, in the experiment on SN12C and in the experiment with SK-MEL-5 was > 100 µM (inactive) each time. The GI50 with UACC-257 and with UO-31 was > 100 µM (inactive) each time.
For `CCOC(=O)C(C(=O)OCC)S(C)(=O)=O`, the GI50 with SW-620, in the experiment on COLO 205, with SK-MEL-2, with SNB-19, in the experiment with NCI-H226 and in the experiment on CCRF-CEM was > 100 µM (inactive) each time. For the same compound, the GI50 in the experiment with OVCAR-4, with OVCAR-5, with EKVX, with SK-MEL-28, in the experiment on SN12C and in the experiment with SK-MEL-5 was > 100 µM (inactive) throughout. In addition, the GI50 in the experiment with UACC-257 and in the experiment with UO-31 was > 100 µM (inactive) throughout.
For the compound `CC(=O)O[C@H]1CCC2[C@@H]3CCC4c5nonc5CC[C@]4(C)C3CC[C@@]21C` (some centres undefined), the GI50 in the experiment on SW-620, in the experiment on COLO 205, in the experiment on SK-MEL-2, in the experiment on SNB-19, in the experiment on NCI-H226 and in the experiment on CCRF-CEM was > 10 µM (inactive) each time. For the same compound, the GI50 in the experiment with OVCAR-4, in the experiment on OVCAR-5, in the experiment on EKVX, with SK-MEL-28, with SN12C and with SK-MEL-5 was > 10 µM (inactive) in each case. The GI50 with UACC-257 and with UO-31 was > 10 µM (inactive) throughout.
On to `Nn1c(S)nnc1N/N=C1/C(=O)Nc2ccccc21`, for which the GI50 was 78.2 µM (inactive) with SW-620; > 100 µM (inactive) with COLO 205; > 100 µM (inactive) in the experiment on SK-MEL-2; 55.2 µM (inactive) with SNB-19; 42.1 µM (inactive) with NCI-H226; 47.3 µM (inactive) in the experiment on CCRF-CEM. The GI50 in the experiment with OVCAR-4 was 42.1 µM (inactive); in the experiment on OVCAR-5, > 100 µM (inactive); in the experiment with EKVX, > 100 µM (inactive); in the experiment with SK-MEL-28, 33.7 µM (inactive); in the experiment on SN12C, 50.6 µM (inactive); in the experiment with UACC-257, > 100 µM (inactive). In addition, the GI50 with UO-31 is 47 µM (inactive).
As for `CCN1CCC(O)(c2ccc(Cl)c(Cl)c2)C(C(=O)c2ccc(Cl)c(Cl)c2)C1` (centres undefined), the GI50 in the experiment on SW-620 is 19.5 µM (inactive); with COLO 205, 16.9 µM (inactive); in the experiment on SK-MEL-2, 17.3 µM (inactive); in the experiment on SNB-19 it was 19.7 µM (inactive); with NCI-H226, 21.4 µM (inactive); in the experiment on CCRF-CEM, 17.1 µM (inactive). Besides, the GI50 with OVCAR-4 is 18.3 µM (inactive); with OVCAR-5 it was 19.2 µM (inactive); in the experiment with EKVX, 18.5 µM (inactive); in the experiment on SK-MEL-28, 18.2 µM (inactive); in the experiment with SN12C, 17.8 µM (inactive); in the experiment with SK-MEL-5 it was 16.9 µM (inactive). Also, the GI50 is 18.2 µM (inactive) in the experiment on UACC-257 and 17.3 µM (inactive) in the experiment with UO-31.
Regarding `O=C(CCN1CCN(c2ccccc2)CC1)N1CCc2c([nH]c3ccccc23)C1c1cccnc1` (centres undefined), the GI50 with SW-620 was 17.2 µM (inactive); in the experiment on COLO 205, 13.5 µM (inactive); with SK-MEL-2, 16.3 µM (inactive); with SNB-19, 23.3 µM (inactive); in the experiment on NCI-H226 it was 25.9 µM (inactive); with CCRF-CEM, 20.6 µM (inactive). For the same compound, the GI50 in the experiment on OVCAR-4 is 13.6 µM (inactive); in the experiment on OVCAR-5 it was 16.9 µM (inactive); with EKVX, 16.9 µM (inactive); in the experiment on SK-MEL-28 it was 15.7 µM (inactive); with SN12C, 15.2 µM (inactive); with SK-MEL-5 it was 14.4 µM (inactive). For the same compound, the values for the GI50 in the experiment on UACC-257 and in the experiment on UO-31 were 15.9 µM (inactive) and 11.5 µM (inactive), respectively.
As to `C=CCC(O)c1cc(OC)ccc1OC` (centres undefined), the GI50 in the experiment with SW-620, with COLO 205, with SK-MEL-2, with SNB-19, with NCI-H226 and in the experiment on CCRF-CEM was > 100 µM (inactive) each time. Also, the GI50 with OVCAR-4, with OVCAR-5, with EKVX, with SK-MEL-28, in the experiment with SN12C and with SK-MEL-5 was > 100 µM (inactive) each time. Moreover, the GI50 in the experiment on UACC-257 and in the experiment on UO-31 was > 100 µM (inactive) in each case.
`O=C(c1ccc(Cl)cc1)N(C(=S)N1CCN(c2ccccn2)CC1)c1ccccc1`: the GI50 with SW-620 was > 100 µM (inactive); in the experiment on COLO 205, > 100 µM (inactive); with SK-MEL-2 it was > 100 µM (inactive); with SNB-19, > 100 µM (inactive); in the experiment with NCI-H226, 24.9 µM (inactive); with CCRF-CEM, > 100 µM (inactive). For the same compound, the GI50 is > 100 µM (inactive) with OVCAR-4; > 100 µM (inactive) with OVCAR-5; > 100 µM (inactive) with SK-MEL-28; > 100 µM (inactive) in the experiment with SN12C; 39.6 µM (inactive) with SK-MEL-5; > 100 µM (inactive) in the experiment on UACC-257. For the same compound, the GI50 in the experiment on UO-31 was 68.9 µM (inactive).

The values are drawn from ChEMBL document CHEMBL1201862, “PubChem BioAssay data set” (2004).
